Data set [1] has as its system 8-F2-isoprostane (8-iso-PGF2) in the kidney. As to the kind of experiment: Carbon tetrachloride rat model of oxidative stress, 8-F2-isoprostane in kidney by GC-MS. The class given is in vivo. Conditions: CCl4 vs. CCl4+PM, p=0.066, not statistically significant; FIG. 5. As for the experimental part: FIG. 5 is a plot depicting the effect of PM administration on the levels of a marker of oxidative stress (8-F2-lsoP) in the carbon tetrachloride (CCl4) rat model disclosed herein as determined by gas-chromatography/mass-spectrometry (GC-MS).
Based on the results of the in vitro experiments disclosed herein, it was hypothesized that PM might reduce oxidative stress in the kidney in vivo. This hypothesis was evaluated using the carbon tetrachloride rat model of oxidative stress (see Kadiiska et al. (2005) Free Radic Biol Med 38:698-710). The effect of PM was determined by measuring the levels of an oxidative stress marker, 8-F2-isoprostane (8-iso-PGF2) in the kidney using gas-chromatography/mass-spectrometry (see Morrow et al. (1999) Methods Enzymol 300:3-12).

The test system of data set [2] is diabetic rat model. The following applies: similar or higher PM doses than 180 mg/day/kg body wt.; long-term; Degenhardt et al. 2002, Stitt et al. 2002; cited from earlier work.
Data set [3] in a line: Reactive PM amino groups in incubations with ethylene glycol (TNBS assay). Conditions: 24 hours at room temperature. The class given is physicochemical. As for the experimental part:
Effect of pyridoxamine treatment on urinary oxalate excretion. […] With the proposed experimental design, interference between PM and ethylene glycol might have been possible because both were administered in drinking water. If significant spontaneous oxidation of ethylene glycol occurs in solution, the resulting carbonyl moieties might react with the PM amino group. To address this question, the amount of reactive PM amino groups was measured in incubations with ethylene glycol using TNBS assay (Spadaro et al. (1979) Anal Biochem 96:317-321).

For data set [4], the system named is urinary oxalate excretion. As to the kind of experiment: Ethylene glycol rat model of experimental hyperoxaluria with PM in drinking water. The class given is in vivo, Sprague-Dawley male rats. The method, then: FIGS. 6A and 6B are graphs depicting the effect of PM treatment on urinary oxalate excretion in animals with experimental hyperoxalura. Sprague-Dawley male rats (49-52 days old) were randomized on Day 1 to receive either ethylene glycol (0.75% v/v in drinking water (450 mg/day/kg body wt.); EG group) or no treatment (Control group). After Day 14, animals within each group were pair-matched according to their oxalate level. One member of each pair was then randomly assigned to receive PM (3 mg/ml or 180 mg/day/kg body wt.) either in drinking water (PM group) or in 0.75% ethylene glycol (EG+PM group). Urine samples were collected under toluene (to inhibit bacteria growth) in 50 ml tubes with hydrochloric acid to minimize spontaneous breakdown of urinary ascorbic acid to oxalate. Urinary oxalate was measured as described under Methods. Each symbol represents mean value±S.E. (n=5); at the time points indicated by asterisks, differences between the EG group and the EG+PM group were statistically significant (p<0.05). The data points on the graphs correspond to the following: ●—Control group; ▪—EG group; —PM group; ⋄—+EG+PM group.
In FIG. 6A, the results of PM given continuously starting from Day 14 are presented.
In FIG. 6B, the results for a separate experiment in which PM treatment was started on Day 14 and was discontinued on Day 28 are presented. In this experiment, the elevated levels of oxalate excretion in Control group on Day 3 are most likely related to animal adaptation. Note that the oxalate levels went down and leveled off before the beginning of PM treatment.
Ethylene glycol model of hyperoxaluria and pyridoxamine treatment. An established rat model of experimental hyperoxaluria, the ethylene glycol (EG) model (see e.g., Lyon et al. (1996) Invest Uro14:143-151; Khan (1997) World J Urol 05:236-243) was employed. […] Because ethylene glycol is converted to glycolaldehyde, an intermediate in glyoxylate pathway, its administration results in increased urinary oxalate levels (Lyon et al. (1996) Invest Urol 4:143-151; Khan (1997) World J Urol 05:236-243). […]
For uniform administration of EG and PM, water supply to all animals was limited to 45 ml/day. […] The length of treatment was determined based on the fact that after about 35 days of experimental hyperoxaluria rats may have some evidence of microscopic nephrolithiasis, but their renal function remains normal (Khan (1997) World J Urol 05:236-243). […]

Data set [5] deals with Human glomerular visceral epithelial cells (podocytes). As to the kind of experiment: Cisplatin-induced podocyte cell death, viability by Rapid Cell Proliferation Kit. The class given is cell-based. Conditions: 22 hours of treatment; RPMI medium with 1% FBS; FIG. 4.
Method: Human glomerular visceral epithelial cells (podocytes) were plated at 8,000 cells/well (96-well plate) and incubated for 24 hours in RPMI medium supplemented with 1% FBS. Following this incubation cells were treated as indicated without changing the medium. The treatment continued for 22 hours and cell viability was measured using Rapid Cell Proliferation Kit (CALBIOCHEM®), a unit of EMD Biosciences, Inc. San Diego, Calif., United States of America).
Data set [6] deals with gentamicin and glycerol rat models of ARF. As to the kind of experiment: Gentamicin and glycerol rat models of ARF treated with PM. The class given is in vivo, Sprague-Dawley rats. The following applies: ARF+PM group compared to ARF group; PM 180 mg/day/kg body weight in drinking water. The source says:
The gentamicin and the glycerol rat models of ARF. There are several animal models of ARF, each having its specific advantages and limitations (see e.g., Bellomo et al. (2004) Group Crit Care 8:R204-12). Two such models are the gentamicin and the glycerol models. […] Importantly, the gentamicin and the glycerol models are highly relevant, representing two of the major clinical causes of ARF: antibiotic toxicity and rhabdomyolosis, respectively (Bellomo et al. (2004) Group Crit Care 8:R204-12). Examining the effects of PM in two different models also helps to minimize possible model-specific adverse effects.
The primary outcome measured is serum creatinine level at the end of PM treatment. […]
Two-month-old male Sprague-Dawley rats (250-300 g) are housed individually in metabolic cages. […] Animals are fed standard powdered stock ration, and their body weights are monitored daily. […]
For PM experiments, rats are randomized into 4 groups based on their baseline serum creatinine levels: (a) the Control group (no ARF is induced); (b) the PM group (no ARF is induced, but PM is given in drinking water); (c) the ARF group; and (d) the ARF+PM group. The experiment is terminated when the serum creatinine in the ARF group reaches its maximum level as determined in the model optimization studies described hereinabove. […]

Data set [7] has as its system collagen IV. As to the kind of experiment: Formation of CML on collagen IV coated plates incubated with glucose (ELISA, anti-CML antibody). The class given is biochemical. Conditions: 5 mM and 30 mM glucose; 200 mM sodium phosphate buffer, pH 7.5, 37° C., 40 days; FIG. 1B. As for the experimental part: The secondary antibody used in the assay was an alkaline phosphatase conjugated goat anti-rabbit IgG from Sigma-Aldrich Co. (St. Louis, Mo., United States of America). Incubations were carried out in 200 mM sodium phosphate buffer, pH 7.5 at 37° C. for 40 days. […]
In general terms: ELISA stands for enzyme-linked immunosorbent assay.

For data set [8], the system named is BSA-Amadori glycation intermediate. Put plainly: Conversion of BSA-Amadori glycation intermediate to CML, measured with anti-CML antibody. The format is biochemical. Conditions: 0.1, 1, 15 mM PM; 200 mM sodium phosphate buffer, pH 7.5, 37° C.; FIG. 1A. As for the experimental part:
FIG. 1A is a graph depicting the conversion of Amadori intermediate to CML measured using anti-CML antibody.
Isolated BSA-Amadori glycation intermediate was formed at diabetic (30 mM) concentration of glucose. The conversion of Amadori intermediate to the AGE N^ε-carboxymethyllysine (CML) was measured using an anti-CML antibody.

The source of these data is patent publication US20070238761A1, “Use of pyridoxamine to treat and/or prevent disease processes” (Vanderbilt University, priority 2005, published 2007).

For the compound `Cc1ncc(CO)c(CN)c1O` [PM, 4-(aminomethyl)-5-(hydroxymethyl)-2-methyl-pyridin-3-ol], in data set [1], the “level of the isoprostane marker (8-F2-isoprostane) in the kidney” value is recorded as “tendency toward lowering the level of the isoprostane marker”. Also, the therapeutic effect entry in data set [2] is reported as “had therapeutic effects”. Besides, the “change in reactive PM amino groups in incubations with ethylene glycol” value in data set [3] is recorded as “No change in amino groups was detected”. In addition, in data set [4] (EG+PM group vs EG group, PM 180 mg/day/kg body wt. in drinking water continuously from Day 14, FIG. 6A), the urinary oxalate excretion result is “dramatic and sustained decrease in urinary oxalate excretion”. In data set [4] (PM started Day 14, discontinued Day 28, FIG. 6B), the “urinary oxalate excretion after PM was discontinued” value is reported as “increase in urinary oxalate excretion to the levels found in untreated hyperoxaluric animals”. In addition, the weight gain entry in data set [4] (all experimental groups, duration of the experiment, PM 180 mg/day/kg body wt.) is on record as “No significant differences in weight gain”. For the same compound, the adverse effects entry in data set [4] (all experimental groups, PM 180 mg/day/kg body wt.) is “no adverse effects”. Further, the “podocyte viability under cisplatin treatment” value in data set [5] was “protected cell viability in a concentration-dependent manner”. For the same compound, in data set [6], the “Creatinine levels at the end of experiment (primary outcome)” value is on record as “envisioned to be significantly lower” and the “degree of renal tubular pathology at the end of experiment (secondary outcome)” value is on record as “envisioned to be lower”. Further, the “formation of CML on collagen IV” value in data set [7] is “inhibited the formation of CML on collagen IV”. The “conversion of the BSA-Amadori glycation intermediate to BSA-CML” value in data set [8] was “inhibited the conversion of the BSA-Amadori glycation intermediate to BSA-CML”.
